Laboratory results published in patent US20150010475A1, “CRLF-2 BINDING PEPTIDES, PROTOCELLS AND VIRAL-LIKE PARTICLES USEFUL IN THE TREATMENT OF CANCER, INCLUDING ACUTE LYMPHOBLASTIC LEUKEMIA (ALL)” (STC. UNM, priority 2011, published 2015).
Converted amounts (≈) assume the structure as drawn.

Legend:
CRLF2 = target: T1, CRLF2 (Homo sapiens, UniProt Q9HC73); experiment: Flow cytometry binding of M13 phage displaying peptide to BaF3-CRLF2 cells; settings: for binding to CRLF2 (peptides pulled from enriched phage population): phage display selection on BaF3 cells expressing CRLF2
T1 construct: expressed in transfected cells
T1 sequence (Q9HC73 23-371): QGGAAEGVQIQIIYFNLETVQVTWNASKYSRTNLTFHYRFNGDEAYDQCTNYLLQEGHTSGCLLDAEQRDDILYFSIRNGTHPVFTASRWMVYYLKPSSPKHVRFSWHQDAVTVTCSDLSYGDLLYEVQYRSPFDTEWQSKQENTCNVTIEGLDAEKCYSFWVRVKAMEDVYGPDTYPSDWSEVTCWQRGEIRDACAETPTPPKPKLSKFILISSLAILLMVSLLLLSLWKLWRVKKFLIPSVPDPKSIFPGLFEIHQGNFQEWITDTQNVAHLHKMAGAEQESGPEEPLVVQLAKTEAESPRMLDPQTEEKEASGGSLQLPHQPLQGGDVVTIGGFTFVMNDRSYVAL
Method: (§1) Flow cytometry is used to evaluate binding of individual phage clones within consensus sequences. In this case, a saturable binding curve can be constructed, allowing for the determination of the dissociation constant (Kd) of phage displaying potentially specific peptides that bind cells with high levels of CRLF2 expression but not parental cell lines with minimal expression.
The selections were carried out on BaF3 cells that had been induced to create the cell receptor CRLF2 and express it on their surface. Negative selections were carried out on the parental cell line (no CRLF2) in order to assure that the ligand identified was in fact binding to the desired target and not to other features on the surface of the cells.
(§2) Affinity selections on cellular targets are complicated by the heterogeneity of surface protein expression on mammalian cells, which frequently results in a large number of peptides that bind unsuitable targets. A major goal of the work we propose is to create an efficient selection/counter-selection scheme. To illustrate our strategy, the gene encoding human CRLF2 was introduced into BaF3 cells (a murine IL3-dependent pro-B cell line) and the protein's abundant surface expression was confirmed by FACS (as shown in Project 2). The resulting BaF3-CRLF2 cells, together with the BaF3 parental line (which specifically lacks CRLF2), served as a matched selection/counter-selection pair and provided a convenient means of discarding affinity selectants that bind the many non-CRLF2 receptors inevitably encountered on the BaF3 surface.
(§3) In this case, a saturable binding curve can be constructed, allowing for the determination of the disassociation constant (Kd) of phage displaying potential specific peptides that bind cells with high levels of CRLF2 expression but not parental cell lines with minimal expression. Data shown for the MTAAPVH phage clone on BaF3/CRLF2 (A) and parental BaF3 cells. (B) Binding curves were constructed by titrating the amount of phage with constant cell concentrations in order to quantitatively describe binding. Non-specific binding was determined by incubating wild-type phage with the same cell lines.
CRLF2 may be targeted using its natural ligand TSLP or with peptides that are specifically directed towards CRLF2; both approaches are being developed. […] Peptides selected by affinity for Ba-F3-CRLF2 cells were counter-selected against parental Ba-F3 cells to eliminate any phage binding receptors common to both cell types. We find that a matched selection/counter-selection pair greatly increases the specificity of the affinity selection process. It is important to note that in the VLP screening method, each VLP encapsidates its own mRNA. This means that the nucleotide sequences encoding any particular VLP and its guest peptide or protein are contained within the particle itself and can be recovered by reverse transcription and polymerase chain reaction.

[1] = test system: MHH CALL 4, Mutz-5 and BaF3/CRLF-2 cells; experiment: Internalization of CRLF-2-targeted protocells by target cells; assay type: cell-based, human; settings: peptide on protocell surface
Method: The upper-left portion of FIG. 7 depicts the internalization efficacy of CRLF-2-targeted protocells in the absence of the R8 peptide. The upper right portion of FIG. 7 presents images of CRLF-2-positive (MHH CALL 4) and CRLF-2-negative (MOLT 4) cells exposed to targeted protocells for 37° C. for two hours. N.D.=not detectable; bilayer composition=DOIDA in DSPC with 5 wt % DSPE; approximate peptide density=10 targeting peptides/protocell and ˜500 H5WYG peptides/protocell. Targeted protocells can become internalized within target cells (MHH CALL 4, Mutz-5 and BaF3/CRLF-2) over time. However, overall internalization efficiency is only ˜20%, which could lead to non-specific cytotoxicity. The lower-left portion of FIG. 7 depicts the internalization efficacy of CRLF-2-targeted protocells in the presence of the R8 peptide. The lower right portion of FIG. 7 presents images of CRLF-2-positive (MHH CALL 4) and CRLF-2-negative (MOLT 4) cells exposed to targeted protocells for 37° C. for two hours. N.D.=not detectable; bilayer composition=DOIDA in DSPC with 5 wt % DSPE; approximate peptide density=10 targeting peptides/protocell and −500 H5WYG peptides/protocell.
The upper-left portion of FIG. 8 depicts internalization kinetics for CRLF-2-targeted protocells in the absence and presence of the R8 peptide. […]

BaF3 parental cells = experiment: Flow cytometry binding of M13 phage displaying peptide to BaF3 parental cells; set-up: species or system murine
Excerpt: as §1, §2, §3
CRLF2 may be targeted using its natural ligand TSLP or with peptides that are specifically directed towards CRLF2; both approaches are being developed. […]

Hep3B = experiment: Cytotoxicity of DOX, free or delivered in protocells or liposomes, in Hep3B; assay type: cell-based; settings: as DOX
Excerpt: For toxicology studies there are two major issues which must be addressed: silica loading in the tissues, derived from the mesoporous silica core of the protocell, and non-targeted or “off target” delivery of the therapeutic cargos to normal tissues. […] Nevertheless, we will systematically evaluate all major organs and tissues in treated mice for silica deposition and cellular damage after treatment with loaded and unloaded protocells. […] As a benchmark, we compared oxidative stress and cell viability of neutral, positively and negatively-charged targeted protocells with corresponding liposomes and other control particles at 10^9 particles/mL corresponding to ˜1-2 μg/mL (FIG. 24). […] In preliminary studies (FIG. 25), we also compared the IgG response of C57Bl/6 mice immunized twice with 10 μg doses of targeted and SP94-targeted protocells to that of virus-like particles (VLPs) conjugated to the same concentration of targeting peptide (MS2 SP94). […] When considering therapeutically administered doses, for the hepatocellular carcinoma cell line Hep3B, the LC50 and LC90 values of free DOX are 150 and 500 ng/mL, respectively. […] As discussed above, Si loading will be assessed by ICP-MS. […]

[2] = target: human CRLF2 expressed on the cell surface (BaF3-CRLF2, REH-CRLF2, MHH CALL 4, MUTZ5 cells) (human) (UniProt Q9HC73); experiment: protocell binding to BaF3-CRLF2, MUTZ5 and MHHCALL4 cells, against untargeted protocells, the parental BAF3 line or CRLF2(-) NALM6 cells (FIG. 19, 20)
[3] = target: T2, human CRLF2 expressed on the cell surface (BaF3-CRLF2, REH-CRLF2, MHH CALL 4, MUTZ5 cells) (human), Q9HC73; experiment: binding of M13 phage to BaF3-CRLF2 cells (FIG. 18)
T2 chain: T1 sequence (Q9HC73 23-371)

[4] = target: T2, human CRLF2 expressed on the cell …; experiment: flow cytometry, M13 phage on BaF3-CRLF2 cells (FIG. 3)
[5] = target: T3, human CRLF2 expressed on the cell surface (BaF3-CRLF2, REH-CRLF2, MHH CALL 4, MUTZ5 cells) (human, UniProt Q9HC73 23-371); experiment: flow cytometry, Alexa-fluor-647 labeled particles incubated 1 h with BaF3/CRLF-2 cells
T3 construct: whole, on cells; Parental BaF3 / REH cells lack CRLF2 and served as negative controls; also called TSLP receptor; TSLPR
T3 sequence (looked up): T1 sequence (Q9HC73 23-371)

In the case of FSYLPSH, the “binding to CRLF2 (peptides pulled from enriched phage population)” value (“binding to CRLF2” for short) (CRLF2) is reported as “exhibited binding to CRLF2”.

With “RRRRRRRR [R8, 8 mer polyarginine that promotes internalization, reference compound]” the “promotion of internalization of protocells by CRLF2-positive cells” value [1] was “promoted this selective internalization in a density-dependent manner”.

With MTAAPVH the “Specific binding of phage clone to the parental cells” value (BaF3 parental cells; parental BaF3) was “extremely minimal”, the “promotion of internalization of protocells by CRLF2-positive cells” value [1] was “does not promote rapid internalization” and the “Specific binding of phage clone to CRLF2 positive cells” value (CRLF2; BaF3/CRLF2, non-specific binding from wild-type phage) was “significant”. The “binding to CRLF2” value (CRLF2) was “best binder”.

For `COc1cccc2c1C(=O)c1c(O)c3c(c(O)c1C2=O)C[C@@](O)(C(=O)CO)C[C@@H]3O[C@H]1C[C@H](N)[C@H](O)[C@H](C)O1` [free DOX, doxorubicin], the LC50 (Hep3B) was 150 ng/mL (≈ 0.276 µM) and the LC90 (Hep3B) was 500 ng/mL (≈ 0.92 µM).

“CRLF2-targeted protocells conjugated with the CRLF2-targeting peptide TDAHASV” was tested, and the fold higher affinity [2] was 1000 fold.

With TDAHASV [peptide ligand to CRLF2] the “binding to the BaF3 parent” value (BaF3 parental cells; peptide displayed on M13 phage) was “not showing significant binding”, the Kd (BaF3 parental cells; peptide displayed on M13 phage, read-out: Kd for the BaF3 parental line) was under 3000 nM and the Kd (CRLF2; peptide displayed on M13 phage, BaF3-CRLF2 cells) was 27.9 nM. For the same molecule, the “binding to CRLF2” value (CRLF2) was “exhibited binding to CRLF2”.

TDAHASV (modifications not checked) [M13 filamentous phage displaying the CRLF2-binding peptide TDAHASV] showed a Kd [3] of 27.9 nM and a Kd [4] of 3 nM.

B1: VLPs not displaying any additional peptides (other)
chain: ASNFTQFVLVDNGGTGDVTVAPSNFANGVAEWISSNSRSQAYKVTCSVRQSSAQNRKYTIKVEVPKVATQTVGGVELPVAAWRSYLNMELTIPIFATNSDCELIVKAMQGLLKDGNPIPSAIAANSGIY
notes: Control particle; also called nontargeted VLPs; particles not displaying any additional peptides
B1: no binding [5].
